According to US9919998B2, “Antibacterial agents: Nα-aroyl-N-aryl-phenylalaninamides” (priority 2014, dated 2018):
≈ marks a conversion by molar mass, not a printed value.

Experiments:
Format in all cases: cell-based
[1] = tested on: Mycobacterium tuberculosis H37Rv; assay: Microplate Alamar Blue assay (MABA) MIC, M. tuberculosis; settings: read-out: MIC Mycobacterium tuberculosis H37Rv
Text: (§1) Minimal inhibitory concentrations (MICs) in Mycobacterium tuberculosis H37Rv and Mycobacterium avium ATCC 25291 were quantified using microplate Alamar Blue assays as described (MABA; [Collins, L. & Franzblau, S. (1997) Microplate Alamar Blue assay versus BACTEC 460 system for high-throughput screening of compounds against Mycobacterium tuberculosis and Mycobacterium avium. Antimicrob. Agents Chemother. 41, 1004-1009]).

[2] = tested on: Mycobacterium smegmatis ATCC 19420; assay: Broth microdilution MIC, M. smegmatis; settings: Mycolicibacterium smegmatis, ATCC19420, M. smegmatis ATCC 19420; read-out: MIC Mycobacterium smegmatis ATCC 19420
Text: MICs in Mycobacterium smegmatis ATCC 19420 and Mycobacterium smegmatis ATCC 19420 derivatives were quantified using broth microdilution assays as described [Clinical and Laboratory Standards Institute (CLSI/NCCLS) (2009) Methods for Dilution Antimicrobial Susceptibility Tests for Bacteria That Grow Aerobically; Approved Standard, Eighth Edition. CLIS Document M07-A8 (CLIS, Wayne Pa.)].

[3] = tested on: Mycobacterium avium ATCC 25291; assay: Microplate Alamar Blue assay (MABA) MIC, M. avium; settings: ATCC25291, M. avium ATCC 25291
Text: as §1

[4] = tested on: Vero E6 ATCC CRL1586 cells; assay: Mammalian-cell cytotoxicity, minimal cytotoxic concentration (CellTiter96)
Procedure: Minimal cytotoxic concentrations (MCCs) against mammalian cells in culture were determined using Vero E6 ATCC CRL1586 cells and the CellTiter96 assay kit (Promega, Inc.). […]

SMILES	MIC [1] [µg/mL]	MIC [2] [µg/mL]	MIC [3] [µg/mL]	MCC mammalian cells Vero E6 ATCC CRL1586 [4] [µg/mL]
CC1CN(c2ccccc2NC(=O)C(Cc2ccc(O)cc2)NC(=O)c2ccccc2)CC(C)O1 (stereo not shown) [IX-266, N-(1-((2-(2,6-dimethylmorpholino)phenyl)amino)-3-(4-hydroxy-phenyl)-1-oxopropan-2-yl)benzamide]	6.25 (≈ 13.2 µM)	1.56 (≈ 3.29 µM)	6.25 (≈ 13.2 µM)	71
O=C(NC(Cc1ccccc1)C(=O)Nc1cccc2cc[nH]c12)c1cccs1 (stereo not shown) [IX-41, N-(1-((1H-indol-7-yl)amino)-1-oxo-3-phenylpropan-2-yl)thiophene-2-carboxamide]	12.5 (≈ 32.1 µM)	0.39 (≈ 1 µM)	12.5 (≈ 32.1 µM)	48
O=C(NC(Cc1ccccc1)C(=O)Nc1cccc2[nH]ncc12)c1cccc2[nH]ccc12 (stereo not shown) [IX-241, N-(1-((1H-indazol-4-yl)amino)-1-oxo-3-phenylpropan-2-yl)-1H-indole-4-carboxamide]	25 (≈ 59 µM)	0.78 (≈ 1.84 µM)	12.5 (≈ 29.5 µM)	36
O=C(NC(Cc1ccccc1)C(=O)Nc1cccc2c1OCCO2)c1ccccc1F (stereo not shown) [IX-59, N-(1-((2,3-dihydrobenzo[b][1,4]dioxin-5-yl)amino)-1-oxo-3-phenylpropan-2-yl)-2-fluorobenzamide]	3.12 (≈ 7.43 µM)	0.095 (≈ 0.226 µM)	6.25 (≈ 14.9 µM)	49
O=C(NC(Cc1ccccc1)C(=O)Nc1ccccc1OC(F)F)c1cccs1 (stereo not shown) [IX-100, N-(1-((2-(difluoromethoxy)phenyl)amino)-1-oxo-3-phenylpropan-2-yl)thiophene-2-carboxamide]	6.25 (≈ 15 µM)	0.39 (≈ 0.936 µM)	6.25 (≈ 15 µM)	42
O=C(NC(Cc1ccc(O)cc1)C(=O)Nc1cccc2cnccc12)c1cccs1 (stereo not shown) [IX-33, N-(3-(4-hydroxyphenyl)-1-(isoquinolin-5-ylamino)-1-oxopropan-2-yl)thiophene-2-carboxamide]	12.5 (≈ 29.9 µM)	0.195 (≈ 0.467 µM)	6.25 (≈ 15 µM)	80
O=C(NC(Cc1ccccc1)C(=O)Nc1cccc2[nH]nnc12)c1ccccc1 (stereo not shown) [IX-223, N-(1-((1H-benzo[d][1,2,3]triazol-4-yl)amino)-1-oxo-3-phenylpropan-2-yl)benzamide]	25 (≈ 64.9 µM)	0.78 (≈ 2.02 µM)	50 (≈ 130 µM)	64
Cc1ccc(Cl)cc1NC(=O)C(Cc1ccccc1)NC(=O)c1cccc2[nH]ccc12 (stereo not shown) [IX-53, N-(1-((5-chloro-2-methylphenyl)amino)-1-oxo-3-phenylpropan-2-yl)-1H-indole-4-carboxamide]	3.12 (≈ 7.24 µM)	0.39 (≈ 0.903 µM)	3.12 (≈ 7.24 µM)	34
Cc1c(NC(=O)C(Cc2ccccc2)NC(=O)c2ccccc2)cccc1C(F)F (stereo not shown) [I-149]	> 50	0.39 (≈ 0.955 µM)	> 50	20
O=C(NC(Cc1ccccc1)C(=O)Nc1cccc2cnccc12)c1cccs1 (stereo not shown) [IX-30, N-(1-(isoquinolin-5-ylamino)-1-oxo-3-phenylpropan-2-yl)thiophene-2-carboxamide]	3.12 (≈ 7.78 µM)	0.195 (≈ 0.486 µM)	6.25 (≈ 15.6 µM)	37
O=C(NC(Cc1ccccc1)C(=O)Nc1ccccc1N1CCCC1)c1cccs1 (stereo not shown) [IX-105, N-(1-oxo-3-phenyl-1-((2-(pyrrolidin-1-yl)phenyl)amino)propan-2-yl)thiophene-2-carboxamide]	6.25 (≈ 14.9 µM)	0.78 (≈ 1.86 µM)	25 (≈ 59.6 µM)	>100
Cc1ccccc1C(=O)NC(Cc1ccccc1)C(=O)Nc1cccc2c1cnn2C (stereo not shown) [IX-297, 2-methyl-N-(1-((1-methyl-1H-indazol-4-yl)amino)-1-oxo-3-phenyl-propan-2-yl)benzamide]	12.5 (≈ 30.3 µM)	0.78 (≈ 1.89 µM)	12.5 (≈ 30.3 µM)	>100
Cc1ccccc1C(=O)NC(Cc1ccccc1)C(=O)Nc1cccc2nc[nH]c12 (stereo not shown) [IX-281, N-(1-((1H-benzo[d]imidazol-7-yl)amino)-1-oxo-3-phenylpropan-2-yl)-2-methylbenzamide]	12.5 (≈ 31.4 µM)	0.78 (≈ 1.96 µM)	12.5 (≈ 31.4 µM)	92
CCc1ccccc1C(=O)NC(Cc1ccccc1)C(=O)Nc1ccccc1C (stereo not shown) [I-123]	> 50	1.56 (≈ 4.04 µM)	> 50	>100
O=C(NC(Cc1ccccc1)C(=O)Nc1ccccc1OC(F)F)c1ccccc1Cl (stereo not shown) [IX-119, 2-chloro-N-(1-((2-(difluoromethoxy)phenyl)amino)-1-oxo-3-phenylpropan-2-yl)benzamide]	3.12 (≈ 7.02 µM)	0.39 (≈ 0.877 µM)	12.5 (≈ 28.1 µM)	5.6
CN1CCN(c2ccccc2NC(=O)C(Cc2ccccc2)NC(=O)c2ccccc2)CC1 (stereo not shown) [IX-151, N-(1-((2-(4-methylpiperazin-1-yl)phenyl)amino)-1-oxo-3-phenyl-propan-2-yl)benzamide]	12.5 (≈ 28.2 µM)	0.78 (≈ 1.76 µM)	12.5 (≈ 28.2 µM)	35
O=C(NC(Cc1ccccc1)C(=O)Nc1cc(F)ccc1N1CCOCC1)c1ccccc1F (stereo not shown) [IX-158, 2-fluoro-N-(1-((5-fluoro-2-morpholinophenyl)amino)-1-oxo-3-phenyl-propan-2-yl)benzamide]	0.78 (≈ 1.68 µM)	0.097 (≈ 0.208 µM)	0.78 (≈ 1.68 µM)	>100
O=C(NC(Cc1ccccc1)C(=O)Nc1cccc2c1OCCO2)c1ccccc1Cl (stereo not shown) [IX-65, 2-chloro-N-(1-((2,3-dihydrobenzo[b][1,4]dioxin-5-yl)amino)-1-oxo-3-phenylpropan-2-yl)benzamide]	3.12 (≈ 7.15 µM)	0.78 (≈ 1.79 µM)	6.25 (≈ 14.3 µM)	18
Cn1cnc2cccc(NC(=O)C(Cc3ccccc3)NC(=O)c3ccccc3)c21 (stereo not shown) [IX-232, N-(1-((1-methyl-1H-benzo[d]imidazol-7-yl)amino)-1-oxo-3-phenyl-propan-2-yl)benzamide]	25 (≈ 62.7 µM)	1.56 (≈ 3.92 µM)	25 (≈ 62.7 µM)	96
O=C(NC(Cc1ccccc1)C(=O)Nc1cccc2ncsc12)c1ccccc1 (stereo not shown) [IX-234, N-(1-(benzo[d]thiazol-7-ylamino)-1-oxo-3-phenylpropan-2-yl)benz-amide]	3.12 (≈ 7.78 µM)	0.39 (≈ 0.971 µM)	3.12 (≈ 7.78 µM)	80
CC(=O)Oc1ccc(CC(NC(=O)c2cccs2)C(=O)Nc2ccccc2N2CCOCC2)cc1 (stereo not shown) [IX-182, 4-(3-((2-morpholinophenyl)amino)-3-oxo-2-(thiophene-2-carbox-amido)propyl)phenyl acetate]	0.78	0.097	3.12	99
Cc1ccccc1NC(=O)C(Cc1ccc(O)cc1)NC(=O)c1ccccc1Cl (stereo not shown) [IX-60, 2-chloro-N-(3-(4-hydroxyphenyl)-1-oxo-1-(o-tolylamino)propan-2-yl)benzamide]	50 (≈ 122 µM)	3.12 (≈ 7.64 µM)	> 50	>100
CC(C)Oc1ccccc1NC(=O)C(Cc1ccccc1)NC(=O)c1ccccc1 (stereo not shown) [I-50]	12.5 (≈ 31.1 µM)	0.78 (≈ 1.94 µM)	> 50	>100
O=C(NC(Cc1ccc(O)cc1)C(=O)Nc1ccccc1N1CCNCC1)c1cccs1 (stereo not shown) [IX-219, N-(3-(4-hydroxyphenyl)-1-oxo-1-((2-(piperazin-1-yl)phenyl)amino)-propan-2-yl)thiophene-2-carboxamide]	1.56 (≈ 3.46 µM)	0.78 (≈ 1.73 µM)	3.12 (≈ 6.94 µM)	69
COc1ncccc1NC(=O)C(Cc1ccccc1)NC(=O)c1ccccc1 (stereo not shown) [IX-38, N-(1-((2-methoxypyridin-3-yl)amino)-1-oxo-3-phenylpropan-2-yl)benzamide]	6.25 (≈ 16.6 µM)	0.39 (≈ 1.04 µM)	6.25 (≈ 16.6 µM)	38
O=C(NC(Cc1ccccc1)C(=O)Nc1cccc2nc[nH]c12)c1ccccc1F (stereo not shown) [IX-280, N-(1-((1H-benzo[d]imidazol-7-yl)amino)-1-oxo-3-phenylpropan-2-yl)-2-fluorobenzamide]	12.5 (≈ 31.1 µM)	1.56 (≈ 3.88 µM)	25 (≈ 62.1 µM)	78
Cc1ccc(F)cc1NC(=O)C(Cc1ccccc1)NC(=O)c1cccc2[nH]ccc12 (stereo not shown) [IX-80, N-(1-((5-fluoro-2-methylphenyl)amino)-1-oxo-3-phenylpropan-2-yl)-1H-indole-4-carboxamide]	1.56 (≈ 3.75 µM)	0.195 (≈ 0.469 µM)	3.12 (≈ 7.52 µM)	33
CCCc1ccccc1NC(=O)C(Cc1ccccc1)NC(=O)c1ccccc1 (stereo not shown) [I-126]	> 50	1.56 (≈ 4.04 µM)	> 50	10
Cc1ccccc1NC(=O)C(Cc1ccc(N2CCOCC2)cc1)NC(=O)c1ccccc1 (stereo not shown) [I-188]	25 (≈ 56.4 µM)	6.25 (≈ 14.1 µM)	–	35
Cc1cccc(C(=O)NC(Cc2ccccc2)C(=O)Nc2ccccc2C)c1 (stereo not shown) [I-113]	> 50	1.56 (≈ 4.19 µM)	–	>100
